{"source": "patent EP0417987B1", "about": "“Fabric softening” (UNILEVER PLC, priority 1989, dated 1991)", "key": {"[1]": {"assay": "pH of the undiluted liquid rinse conditioner", "conditions": "rinse conditioner 5wt% Armeen M2HT, 1wt% tallow 35EO", "description": "(§1) The performance and stability of several amine containing liquid fabric softening compositions was tested as follows:\n(§2) A wash load of 1.25 kg of terry towelling and 1.25 kg of cotton sheeting fabrics was washed at 40°C in a Miele 756 automatic with 100g of Persil Automatic (UK)."}, "[2]": {"assay": "pH of the rinse water after adding rinse conditioner to the last rinse cycle of a machine wash", "format": "physicochemical", "conditions": "90 mls rinse conditioner (about 200 ppm amine) in last rinse cycle", "description": "as §1, §2"}, "[3]": {"assay": "Stability of the undiluted liquid rinse conditioner", "conditions": "rinse conditioner 5wt% Armeen M2HT, 1wt% tallow 35EO", "description": "as §1, §2"}, "[4]": {"conditions": "pH adjuster conc 0.7 M in product"}, "[5]": {"conditions": "pH adjuster conc 0.9 M in product"}, "[6]": {"conditions": "pH adjuster conc 1.0 M in product"}, "[7]": {"conditions": "pH adjuster conc 0.3 M in product"}, "[8]": {"conditions": "pH adjuster conc 0.5 M in product"}, "[9]": {"conditions": "pH adjuster conc 0.4 M in product"}, "[10]": {"conditions": "pH adjuster conc 0.6 M in product"}}, "note": "Where a name gives a salt, the structure may show the parent alone."}
{"smiles": "Cl", "note": "[HCl]", "values": [{"measurement": "undiluted product pH", "setting": "[1]; pH adjuster conc 0.7 M", "value": 0.2}, {"measurement": "undiluted product pH", "setting": "[1]; pH adjuster conc 1.0 M", "value": 0.1}, {"measurement": "rinse pH", "setting": "[2]; [4]", "value": 5.2}, {"measurement": "rinse pH", "setting": "[2]; [5]", "value": 4.4}, {"measurement": "rinse pH", "setting": "[2]; [6]", "value": 3.7}]}
{"smiles": "O=C(O)CC(O)(CC(=O)O)C(=O)O", "note": "[Citric, citric acid]", "values": [{"measurement": "rinse pH", "setting": "[2]; [7]", "value": 5.6}, {"measurement": "rinse pH", "setting": "[2]; [8]", "value": 4.5}, {"measurement": "rinse pH", "setting": "[2]; [5]", "value": 3.8}]}
{"smiles": "O=C(O)CC(=O)O", "note": "[Malonic, malonic acid]", "values": [{"measurement": "undiluted product stability", "setting": "[3]; pH adjuster conc 0.7 M", "value": "stable"}, {"measurement": "undiluted product pH", "setting": "[1]; pH adjuster conc 0.7 M", "value": 1.5}, {"measurement": "rinse pH", "setting": "[2]; [8]", "value": 5.4}, {"measurement": "rinse pH", "setting": "[2]; [4]", "value": 4.7}, {"measurement": "rinse pH", "setting": "[2]; [5]", "value": 3.4}]}
{"smiles": "O=C(O)C(=O)O", "note": "[Oxalic, Oxalic acid]", "values": [{"measurement": "undiluted product stability", "setting": "[3]; pH adjuster conc 0.6 M", "value": "unstable"}, {"measurement": "undiluted product pH", "setting": "[1]; pH adjuster conc 0.6 M", "value": 0.8}, {"measurement": "rinse pH", "setting": "[2]; [7]", "value": 6.0}, {"measurement": "rinse pH", "setting": "[2]; [9]", "value": 4.8}, {"measurement": "rinse pH", "setting": "[2]; [10]", "value": 3.3}]}
{"smiles": "O=C(O)C(O)C(O)C(=O)O", "note": "(centres unmarked) [Tartaric, tartaric acid]", "values": [{"measurement": "rinse pH", "setting": "[2]; [9]", "value": 5.7}, {"measurement": "rinse pH", "setting": "[2]; [8]", "value": 4.5}, {"measurement": "rinse pH", "setting": "[2]; pH adjuster conc 0.8 M in product", "value": 3.9}]}
{"smiles": "O=C(O)CCC(=O)O", "note": "[Succinic, succinic acid]", "values": [{"measurement": "undiluted product stability", "setting": "[3]; pH adjuster conc 1.0 M", "value": "stable"}, {"measurement": "undiluted product stability", "setting": "[3]; pH adjuster conc 1.5 M", "value": "stable"}, {"measurement": "undiluted product pH", "setting": "[1]; pH adjuster conc 1.0 M", "value": 2.3}, {"measurement": "undiluted product pH", "setting": "[1]; pH adjuster conc 1.5 M", "value": 2.2}, {"measurement": "rinse pH", "setting": "[2]; [6]", "value": 4.5}, {"measurement": "rinse pH", "setting": "[2]; pH adjuster conc 1.5 M in product", "value": 4.2}]}
{"smiles": "O=P(O)(O)O", "note": "[o-H₃PO₄, orthophosphoric acid]", "values": [{"measurement": "undiluted product pH", "setting": "[1]; pH adjuster conc 0.6 M", "value": 1.3}, {"measurement": "undiluted product pH", "setting": "[1]; pH adjuster conc 1.2 M", "value": 0.8}, {"measurement": "rinse pH", "setting": "[2]; [10]", "value": 5.6}, {"measurement": "rinse pH", "setting": "[2]; [5]", "value": 4.6}, {"measurement": "rinse pH", "setting": "[2]; pH adjuster conc 1.2 M in product", "value": 3.8}]}
